What all share (type): physicochemical
Data set [1] is described as follows: aqueous solubility of voriconazole. The note with it: aqueous solution, pH 3, aqueous buffer.
The nature of a further data set: log D of voriconazole.
A short description of a further data set: stability in water. Conditions: inactive enantiomer formed from recombination of retro-aldol products of hydrolysis.

Our source for the solubility, logD and stability in water values is patent US6632803B1, “Pharmaceutical formulations containing voriconazole” (Pfizer Inc, priority 1997, dated 2003).

The structures appear in SMILES notation. Converted amounts (≈) assume the structure as drawn.

One may read the solubility as how much of the substance goes into solution per volume. As a reminder, the logD is the decadic logarithm of the distribution of all forms, ionised or not, between an organic phase and buffer at a given pH. For the molecule `C[C@@H](c1ncncc1F)[C@](O)(Cn1cncn1)c1ccc(F)cc1F` [Voriconazole], the solubility in data set [1] stood at 200 µg/mL (≈ 573 µM). Moreover, the logD in “log D of voriconazole” was 1.8. Further, the stability in water result in the data set “stability in water” was “not stable in water”.
